Measurements as given in patent US7727986B2, “Pesticide pyrimidinyloxy substituted phenylamidine derivatives” (Bayer CropScience AG, priority 2005, dated 2010).

Tests used:
[1] = logP by HPLC on reversed-phase column (C 18), EEC Directive 79/831 Annex V.A8; format: physicochemical; settings: for chromatographic logP: reversed-phase C18 HPLC column, value in preparation example text, read-out: log P (pH 2.3)
Protocol: Temperature: 40° C.; Mobile phases: 0.1% aqueous formic acid and acetonitrile; linear gradient from 10% acetonitrile to 90% acetonitrile.

Phaedon cochleariae = test: In vivo protective test on Phaedon cochleariae (PHAECO); settings: Chinese cabbage leaf-disks sprayed, infested with mustard beetle larvae; concentration not given
Protocol: In vivo Protective Test on Phaedon cochleariae (PHAECO)
(§1) To produce a suitable preparation of active compound, 1 part by weight of active compound is mixed with the stated amount of solvent and emulsifier, and the concentrate is diluted with emulsifier-containing water to the desired concentration.
Chinese cabbage (Brassica pekinesis) leaf-disks are sprayed with a preparation of the active ingredient of the desired concentration. Once dry, the leaf disks are infested with mustard beetle larvae (Phaedon cochleariae).
After the specified period of time, mortality in % is determined. 100% means that all beetle larvae have been killed and 0% means that none of the beetle larvae have been killed.

Myzus persicae = test: In vivo protective test on Myzus persicae (MYZUPE); settings: Chinese cabbage leaf-disks infected with green peach aphid, sprayed; concentration not given
Protocol: In vivo Protective Test on Myzus persicae (MYZUPE)
as §1
Chinese cabbage (Brassica pekinesis) leaf-disks infected with all instars of the green peach aphid (Myzus persicae), are sprayed with a preparation of the active ingredient at the desired concentration.
After the specified period of time, mortality in % is determined. 100% means that all aphids have been killed; 0% means that none of the aphids have been killed.

Tetranychus urticae = test: In vivo protective test on Tetranychus urticae (TETRUR); settings: French bean infested with two spotted spidermite, sprayed; concentration not given
Protocol: In vivo Protective Test on Tetranychus urticae (TETRUR)
as §1
French bean (Phaseolus vulgaris) which are heavily infested with all stages of the two spotted spidermite (Tetranychus urticae), are sprayed with a preparation of the active ingredient at the desired concentration.
After the specified period of time, mortality in % is determined. 100% means that all spider mites have been killed and 0% means that none of the spider mites have been killed.

[2] = HPLC, 0.1% aqueous formic acid and acetonitrile, 40° C., pH 2.3
[3] = measured at pH = 4 (footnote a)

| logPa [1, 2] | Structure (SMILES) | other results |
| --- | --- | --- |
| 2.49 | Cc1cc(Oc2ccnc(Oc3ccc(C(F)(F)F)cc3)n2)c(C)cc1N=CN1CCCCC1 [Compound 88] | – |
| 1.82 | CCN(C)C=Nc1cc(C)c(Oc2ncc(Cl)c(N(C)CC)n2)cc1C [Compound 89, N′-[4-({5-chloro-4-[ethyl(methyl)amino]pyrimidin-2-yl}oxy)-2,5-dimethyl-phenyl]-N-ethyl-N-methylimidoformamide] | chromatographic logP ([1]; pH 2.3): 1.82 |
| 1.4 | CCCN(C)C=Nc1cc(C)c(Oc2ncc(C)c(C)n2)cc1C [Compound 94] | – |
| 1.32 | CCN(C)C=Nc1cc(C)c(Oc2ncc(Cl)cn2)cc1C [Compound 95] | – |
| 1.7 | CCCN(C)C=Nc1cc(C)c(Oc2nccc(C(F)(F)F)n2)cc1C [Compound 98] | – |
| 2.13 | CCN(C)C=Nc1cc(C)c(Oc2nccc(Oc3cccc(Cl)c3)n2)cc1C [Compound 103] | – |

The remaining lines, values behind:

| Structure (SMILES) | logPa [1, 2] | other results |
| --- | --- | --- |
| CCCN(C)C=Nc1cc(C)c(Oc2ccnc(Oc3cccc(Cl)c3C)n2)cc1C [Compound 18] | 2.21 | activity (mortality) (Phaedon cochleariae): good activity |
| CCCN(C)C=Nc1cc(C)c(Oc2ccnc(Oc3ccccc3)n2)cc1C [Compound 36] | 1.87 | activity (mortality) (Myzus persicae): good activity |
| CCN(C)C=Nc1cc(C)c(Oc2ccnc(N(C)C)n2)cc1C [Compound 37] | 0.66 | activity (mortality) (Tetranychus urticae): good activity |
| Cc1cc(Oc2cc(C)c(N=CN(C)C(C)C)cc2C)nc(Cl)n1 [Compound 41] | 1.57 | activity (mortality) (Myzus persicae): good activity |
| CCN(C)C=Nc1cc(C)c(Oc2ccnc(Oc3cccc(Cl)c3)n2)cc1C [Compound 65] | 2.04 | activity (mortality) (Myzus persicae): good activity |
| CCN(C)C=Nc1cc(C)c(Oc2nccc(C(F)(F)F)n2)cc1C [Compound 90] | – | logPa [1, 3]: 0.22^a |
| CCN(C)C=Nc1cc(C(C)C)c(Oc2nccc(C(F)(F)F)n2)cc1C [Compound 92] | – | logPa [1, 3]: 1.10^a |
| CCN(C)C=Nc1cc(C)c(Oc2ncc(C)c(C)n2)cc1C [Compound 93] | 1.19 | – |
| CCCN(C)C=Nc1cc(C)c(Oc2ncc(Cl)cn2)cc1C [Compound 96] | 1.48 | – |
| Cc1cc(Oc2ncc(Cl)cn2)c(C)cc1N=CN(C)C(C)C [Compound 97] | 1.41 | – |
| CCN(C)c1nc(Oc2cc(C)c(N=CN(C)C(C)C)cc2C)ncc1Cl [Compound 99] | 1.98 | – |
| CCCN(C)C=Nc1cc(C)c(Oc2ncc(Cl)c(N(C)CC)n2)cc1C [Compound 100] | 1.95 | – |
| CCN(C)c1nc(Oc2cc(C)c(N=CN3CCCCC3)cc2C)ncc1Cl [Compound 101] | 1.93 | – |
| CCN(C)C=Nc1cc(C)c(Oc2nccc(Oc3ccccc3)n2)cc1C [Compound 102] | 1.82 | – |
| Cc1cc(Oc2ccnc(N(C)c3ccccc3)n2)c(C)cc1N [[4-(4-Amino-2,5-dimethyl-phenoxy)-pyrimidin-2-yl]-methyl-phenyl-amine] | – | chromatographic logP ([1]; pH 2.3): 1.72 |
